Test results published in US8895733B2 (Novartis AG, priority 2010, dated 2014).
Counter-ions that a name gives are not always drawn.

target: T1, Nav 1.7 (Homo sapiens, UniProt Q15858); experiment: Whole-cell voltage clamp electrophysiology, automated patch clamp (marker c in Table of Examples); assay type: cell-based; conditions: marker c = Automated patch clamp data; read-out: Nav 1.7 activity
T1 construct: expressed in transfected cells
Procedure, shortened: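 A voltage protocol weighted toward inactivated-state block was used to test compounds on stably expressing cells, with pulses from −65 mV holding to −10 mV test and −100 mV. Currents came from whole-cell automated patch-clamp recordings, either IonWorks Quattro or other automated instruments, usually in perforated-patch mode.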

T1 sequence (Q15858 whole entry): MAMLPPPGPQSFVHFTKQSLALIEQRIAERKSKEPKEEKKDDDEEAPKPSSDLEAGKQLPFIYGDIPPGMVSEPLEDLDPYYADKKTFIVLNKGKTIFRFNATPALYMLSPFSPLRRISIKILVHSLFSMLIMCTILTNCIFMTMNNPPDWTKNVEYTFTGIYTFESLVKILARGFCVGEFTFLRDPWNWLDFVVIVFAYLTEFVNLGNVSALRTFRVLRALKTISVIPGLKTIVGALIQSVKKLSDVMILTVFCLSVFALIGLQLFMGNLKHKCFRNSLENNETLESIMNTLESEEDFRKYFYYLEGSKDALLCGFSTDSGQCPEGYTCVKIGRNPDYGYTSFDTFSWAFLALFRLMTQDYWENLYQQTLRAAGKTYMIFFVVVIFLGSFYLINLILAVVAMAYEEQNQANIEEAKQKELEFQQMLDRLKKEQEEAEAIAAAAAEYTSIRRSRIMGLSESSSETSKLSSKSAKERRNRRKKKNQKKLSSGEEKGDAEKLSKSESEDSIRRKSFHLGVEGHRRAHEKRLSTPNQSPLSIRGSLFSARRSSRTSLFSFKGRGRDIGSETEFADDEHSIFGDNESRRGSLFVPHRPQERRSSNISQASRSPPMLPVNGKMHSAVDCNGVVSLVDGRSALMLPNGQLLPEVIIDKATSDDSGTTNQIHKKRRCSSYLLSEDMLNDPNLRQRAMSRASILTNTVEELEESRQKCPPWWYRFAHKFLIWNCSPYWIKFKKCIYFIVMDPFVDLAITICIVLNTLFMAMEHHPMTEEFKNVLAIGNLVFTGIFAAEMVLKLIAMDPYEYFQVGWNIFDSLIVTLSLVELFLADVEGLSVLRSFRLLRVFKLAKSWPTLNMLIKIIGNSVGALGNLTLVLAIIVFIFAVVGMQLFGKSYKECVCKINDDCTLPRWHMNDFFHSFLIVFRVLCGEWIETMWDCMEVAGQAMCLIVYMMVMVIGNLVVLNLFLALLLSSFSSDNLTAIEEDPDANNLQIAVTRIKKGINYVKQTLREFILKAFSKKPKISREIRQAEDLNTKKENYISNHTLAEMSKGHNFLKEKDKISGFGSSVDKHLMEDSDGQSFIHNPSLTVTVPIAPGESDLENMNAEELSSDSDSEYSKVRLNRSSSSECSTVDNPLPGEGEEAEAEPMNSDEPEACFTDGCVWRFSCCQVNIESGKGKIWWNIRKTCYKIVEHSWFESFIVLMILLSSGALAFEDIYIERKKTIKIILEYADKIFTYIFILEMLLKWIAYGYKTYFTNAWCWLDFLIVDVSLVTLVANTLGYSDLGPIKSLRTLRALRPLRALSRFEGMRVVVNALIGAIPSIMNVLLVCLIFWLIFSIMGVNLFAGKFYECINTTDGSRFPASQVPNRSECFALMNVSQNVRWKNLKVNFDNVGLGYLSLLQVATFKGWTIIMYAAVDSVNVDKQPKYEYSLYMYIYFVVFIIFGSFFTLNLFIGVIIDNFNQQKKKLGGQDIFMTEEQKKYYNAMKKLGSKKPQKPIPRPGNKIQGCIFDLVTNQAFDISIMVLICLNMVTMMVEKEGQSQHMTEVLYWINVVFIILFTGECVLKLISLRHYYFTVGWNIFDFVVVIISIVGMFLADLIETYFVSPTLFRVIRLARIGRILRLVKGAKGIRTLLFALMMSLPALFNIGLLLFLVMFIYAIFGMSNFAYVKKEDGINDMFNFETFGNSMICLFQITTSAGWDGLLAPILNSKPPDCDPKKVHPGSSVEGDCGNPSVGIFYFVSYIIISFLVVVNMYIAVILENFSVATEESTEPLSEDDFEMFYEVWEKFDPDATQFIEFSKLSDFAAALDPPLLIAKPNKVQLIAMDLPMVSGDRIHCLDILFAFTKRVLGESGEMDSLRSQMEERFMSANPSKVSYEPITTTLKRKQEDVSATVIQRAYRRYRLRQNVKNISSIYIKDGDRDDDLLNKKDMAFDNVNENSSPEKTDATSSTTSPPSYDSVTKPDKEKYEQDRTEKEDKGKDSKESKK

IC50 [nM] | SMILES
422 | CN(c1ccccc1)c1nc(N)nc(-c2noc(C(=O)NCc3ccc(OCC(F)(F)F)nc3)n2)n1 [Example 259, 3-{4-amino-6-[methyl(phenyl)amino]-1,3,5-triazin-2-yl}-N-{[6-(2,2,2-trifluoroethoxy)pyridin-3-yl]methyl}-1,2,4-oxadiazole-5-carboxamide]
3610 | Nc1nc(Nc2ccccc2)nc(-c2noc(C(=O)N3CCC(OCC4CC4)CC3)n2)n1 [Example 462, 6-(5-{[4-(cyclopropylmethoxy)piperidin-1-yl]carbonyl}-1,2,4-oxadiazol-3-yl)-2-N-phenyl-1,3,5-triazine-2,4-diamine]
9030 | Nc1ccc(-c2nc(-c3nc(N)nc(Nc4cccc(F)c4)n3)no2)nc1 [Example 249, 6-[5-(5-aminopyridin-2-yl)-1,2,4-oxadiazol-3-yl]-2-N-(3-fluorophenyl)-1,3,5-triazine-2,4-diamine]
2080 | CN(c1ccccc1)c1nc(N)nc(-c2noc(-c3cccnc3C(=O)NC3CCC3)n2)n1 [Example 374, 3-(3-{4-amino-6-[methyl(phenyl)amino]-1,3,5-triazin-2-yl}-1,2,4-oxadiazol-5-yl)-N-cyclobutylpyridine-2-carboxamide]
55 | CC(Oc1ccc(-c2nc(-c3nc(N)nc(N(C)c4ccccc4)n3)no2)cn1)C(F)(F)F (stereo not shown) [Example 357, 2-N-methyl-2-N-phenyl-6-(5-{6-[(1,1,1-trifluoropropan-2-yl)oxy]pyridin-3-yl}-1,2,4-oxadiazol-3-yl)-1,3,5-triazine-2,4-diamine]
461 | Nc1nc(Nc2ccccc2)nc(-c2noc(N3CC(Oc4ccccc4)C3)n2)n1 [Example 503, 6-[5-(3-phenoxyazetidin-1-yl)-1,2,4-oxadiazol-3-yl]-2-N-phenyl-1,3,5-triazine-2,4-diamine]
142 | Nc1nc(Nc2ccccc2)nc(-c2noc(-c3ncccc3Cl)n2)n1 [Example 431, 6-[5-(3-chloropyridin-2-yl)-1,2,4-oxadiazol-3-yl]-2-N-phenyl-1,3,5-triazine-2,4-diamine]
> 8080 | CC(C)OC1CN(c2nc(-c3nc(N)nc(N(C)c4ccccc4)n3)no2)C1 [Example 492, 6-[5-(3-Isopropoxyazetidin-1-yl)-[1,2,4]oxadiazol-3-yl]-N-methyl-N-phenyl-[1,3,5]triazine-2,4-diamine]
1280 | CN(c1ccccc1)c1nc(N)nc(-c2noc(N3CCC(c4ccccc4)CC3)n2)n1 [Example 352, 2-N-methyl-2-N-phenyl-6-[5-(4-phenylpiperidin-1-yl)-1,2,4-oxadiazol-3-yl]-1,3,5-triazine-2,4-diamine]
570 | CN(C)S(=O)(=O)N1CCC(c2nc(-c3nc(N)nc(Nc4ccccc4)n3)no2)CC1 [Example 517, 4-{3-[4-amino-6-(phenylamino)-1,3,5-triazin-2-yl]-1,2,4-oxadiazol-5-yl}-N,N-dimethylpiperidine-1-sulfonamide]
1110 | CN(c1ccccc1)c1nc(N)nc(-c2noc(C3CCN(S(=O)(=O)C4CCCC4)CC3)n2)n1 [Example 509, 6-{5-[1-(cyclopentanesulfonyl)piperidin-4-yl]-1,2,4-oxadiazol-3-yl}-2-N-methyl-2-N-phenyl-1,3,5-triazine-2,4-diamine]
6010 | CN(c1ccccc1)c1nc(N)nc(-c2noc(C(=O)Nc3ccc(C(F)(F)F)nc3)n2)n1 [Example 263, 3-{4-amino-6-[methyl(phenyl)amino]-1,3,5-triazin-2-yl}-N-[6-(trifluoromethyl)pyridin-3-yl]-1,2,4-oxadiazole-5-carboxamide]
406 | CN(c1ccccc1)c1nc(N)nc(-c2noc(-c3ncccc3COCC(F)(F)F)n2)n1 [Example 302, 2-N-methyl-2-N-phenyl-6-(5-{3-[(2,2,2-trifluoroethoxy)methyl]pyridin-2-yl}-1,2,4-oxadiazol-3-yl)-1,3,5-triazine-2,4-diamine]
4060 | CN(c1ccccc1)c1nc(N)nc(-c2noc([C@H]3CCCN3)n2)n1 [Example 439, 2-N-methyl-2-N-phenyl-6-{5-[(2R)-pyrrolidin-2-yl]-1,2,4-oxadiazol-3-yl}-1,3,5-triazine-2,4-diamine hydrochloride]
399 | CN(c1ccccc1)c1nc(N)nc(-c2noc(-c3cccnc3C(=O)OCC3CC3)n2)n1 [Example 378, cyclopropylmethyl 3-(3-{4-amino-6-[methyl(phenyl)amino]-1,3,5-triazin-2-yl}-1,2,4-oxadiazol-5-yl)pyridine-2-carboxylate]
232 | CN(c1ccccc1)c1nc(N)nc(-c2noc(-c3ncccc3C(=O)OCC3CC3)n2)n1 [Example 377]
1150 | CN(c1ccc(F)cc1)c1nc(N)nc(-c2noc(-c3ccc(OCC(F)(F)F)nc3)n2)n1 [Example 410, 2-N-(4-fluorophenyl)-2-N-methyl-6-{5-[6-(2,2,2-trifluoroethoxy)pyridin-3-yl]-1,2,4-oxadiazol-3-yl}-1,3,5-triazine-2,4-diamine]
473 | CN(c1ccccc1)c1nc(N)nc(-c2noc(-c3ccc(COCC(F)(F)F)o3)n2)n1 [Example 497, 2-N-methyl-2-N-phenyl-6-(5-{5-[(2,2,2-trifluoroethoxy)methyl]furan-2-yl}-1,2,4-oxadiazol-3-yl)-1,3,5-triazine-2,4-diamine]
155 | CN(c1ccccc1)c1nc(N)nc(-c2noc(-c3ccc(OCC(F)F)nc3)n2)n1 [Example 372, 6-{5-[6-(2,2-difluoroethoxy)pyridin-3-yl]-1,2,4-oxadiazol-3-yl}-2-N-methyl-2-N-phenyl-1,3,5-triazine-2,4-diamine]
146 | Nc1nc(Nc2ccccc2)nc(-c2noc(-c3ncccc3C(F)(F)F)n2)n1 [Example 430, 2-N-phenyl-6-{5-[3-(trifluoromethyl)pyridin-2-yl]-1,2,4-oxadiazol-3-yl}-1,3,5-triazine-2,4-diamine]
9430 | CN(c1ccccc1)c1nc(N)nc(-c2noc(C3CCC(N)CC3)n2)n1 (stereo not shown) [Example 422, 6-[5-(4-Aminocyclohexyl)-1,2,4-oxadiazol-3-yl]-2-N-methyl-2-N-phenyl-1,3,5-triazine-2,4-diamine]
201 | CN(c1cccc(F)c1)c1nc(N)nc(-c2noc(-c3ccc(OCC(F)(F)F)nc3)n2)n1 [Example 407, 2-N-(3-fluorophenyl)-2-N-methyl-6-{5-[6-(2,2,2-trifluoroethoxy)pyridin-3-yl]-1,2,4-oxadiazol-3-yl}-1,3,5-triazine-2,4-diamine]
161 | CN(c1ccccc1)c1nc(N)nc(-c2noc(N3CC[C@H](Oc4ccccc4)C3)n2)n1 [Example 433, 2-N-methyl-6-{5-[(3S)-3-phenoxypyrrolidin-1-yl]-1,2,4-oxadiazol-3-yl}-2-N-phenyl-1,3,5-triazine-2,4-diamine]
> 8460 | CN(c1ccccc1)c1nc(N)nc(-c2noc(N3CCC(S(=O)(=O)CC(F)(F)F)CC3)n2)n1 [Example 365, 2-N-methyl-2-N-phenyl-6-(5-{4-[(2,2,2-trifluoroethane)sulfonyl]piperidin-1-yl}-1,2,4-oxadiazol-3-yl)-1,3,5-triazine-2,4-diamine]
40 | COc1ccccc1-c1nc(-c2nc(N)nc(Nc3ccccc3)n2)no1 [Example 247, 6-[5-(2-methoxyphenyl)-1,2,4-oxadiazol-3-yl]-2-N-phenyl-1,3,5-triazine-2,4-diamine]
167 | COCCN(c1ccccc1)c1nc(N)nc(-c2noc(-c3c(F)cccc3OC)n2)n1 [Example 437, 6-[5-(2-fluoro-6-methoxyphenyl)-1,2,4-oxadiazol-3-yl]-2-N-(2-methoxyethyl)-2-N-phenyl-1,3,5-triazine-2,4-diamine]
2360 | CN(c1ccccc1)c1nc(N)nc(-c2noc(N3CCC(=CCC(F)(F)F)CC3)n2)n1 [Example 324, 2-N-Methyl-2-N-phenyl-6-{5-[4-(3,3,3-trifluoropropylidene)piperidin-1-yl]-1,2,4-oxadiazol-3-yl}-1,3,5-triazine-2,4-diamine]

SMILES | IC50 [nM]
CN(c1ccccc1)c1nc(N)nc(-c2noc(N3CCC(COC4CCC4)CC3)n2)n1 [Example 217, 6-{5-[4-(cyclobutoxymethyl)piperidin-1-yl]-1,2,4-oxadiazol-3-yl}-2-N-methyl-2-N-phenyl-1,3,5-triazine-2,4-diamine] | 415

same assay, conditions: marker c: Automated patch clamp data; read-out: Nav 1.7 activity

IC50 [nM] | SMILES
3570 | COCCOCc1ccc(-c2nc(-c3nc(N)nc(N(C)c4ccccc4)n3)no2)cn1 [Example 143, 6-{5-[6-(2-Methoxy-ethoxymethyl)-pyridin-3-yl]-[1,2,4]oxadiazol-3-yl}-N-methyl-N-phenyl-[1,3,5]triazine-2,4-diamine]
644 | CN(c1ccccc1)c1nc(N)nc(-c2noc(-c3ccc(F)cc3)n2)n1 [Example 122, 6-[5-(4-Fluoro-phenyl)-[1,2,4]oxadiazol-3-yl]-N-methyl-N-phenyl-[1,3,5]triazine-2,4-diamine]
843 | Cc1cccc(N(C)c2nc(N)nc(-c3noc(-c4ccccc4OC(F)(F)F)n3)n2)c1 [Example 194, 2-N-methyl-2-N-(3-methylphenyl)-6-{5-[2-(trifluoromethoxy)phenyl]-1,2,4-oxadiazol-3-yl}-1,3,5-triazine-2,4-diamine]
246 | COc1ccc(-c2nc(-c3nc(N)nc(N(C)c4ccccc4)n3)no2)c(OC)c1 [Example 77, 6-[5-(2,4-Dimethoxy-phenyl)-[1,2,4]oxadiazol-3-yl]-N-methyl-N-phenyl-[1,3,5]triazine-2,4-diamine]
2720 | Nc1nc(Nc2ccccc2)nc(-c2noc(-c3cc[nH]n3)n2)n1 [Example 40, N-Phenyl-6-[5-(1H-pyrazol-3-yl)-[1,2,4]oxadiazol-3-yl]-[1,3,5]triazine-2,4-diamine]
1720 | CN(c1ccccc1)c1nc(N)nc(-c2noc(-c3ccc(COC4CCOC4)nc3)n2)n1 (stereo not shown) [Example 144, N-Methyl-N-phenyl-6-{5-[6-(tetrahydro-furan-3-yloxymethyl)-pyridin-3-yl]-[1,2,4]oxadiazol-3-yl}-[1,3,5]triazine-2,4-diamine]
